According to US20130157261A1, “Compositions and Methods for Quantitative Histology, Calibration of Images in Fluorescence Microscopy, and ddTUNEL Analyses” (The Methodist Hospital Research Institute, priority 2011, published 2013):

Tests used:
U87 cells [1] = assay: Fpg-ddTUNEL assay (oxidized/acylated DNA bases), with or without NaBH4 reduction; assay type: cell-based, human; settings: for Fpg-ddTUNEL: approximate concentration of the probe in the cells: U87 cells following treatment, nominal path length of 6 μm, control 0.9; for effect of NaBH4 reduction on the Fpg-ddTUNEL signal / oxo-base levels: ethanolic NaBH4
Description: Each sample was incubated in 25 mM sodium borohydride in 70% ethanol for 30 min. The sample was then washed twice in 0.1 M PBS. Typically, a slide box was employed, and it was half-filled with reducing solution so that half the sample(s) on the slide were reduced.
The sample was washed twice in 10 mM HEPES, 10 mM NaCl, 2 mM EDTA and 0.1% BSA and then ≈50 μL of the same buffer containing 100 U/mL of Fpg was applied to each of the sections, which were then incubated in a humidified box for ≧4 hr. The sample was washed twice in 100 mM PBS, and then twice in NEBuffer3. Approximately 50 μL of the same buffer containing 100 U/mL of CIAP was then applied to each section, and incubated for ≧2 hrs.
1. After completing both ddTUNEL and CIAP-ddTUNEL, each sample is washed twice in Fpg-buffer (Affymetrix) for 10 min.
2. Samples are then incubated in 100 U/mL Fpg (Affymetrix) in Fpg Buffer for 2 hr at 37° C. (or, alternatively, overnight at room temperature).
Following ddTUNEL and CIAP-ddTUNEL, capping 3′OH/3′PO4 ends, samples were washed twice in 10 mM HEPES, 10 mM NaCl, 2 mM EDTA and 0.1% BSA and then ≈50 μL of the same buffer containing 100 U/mL of Fpg was applied to each of the sections, and then incubated in a humidified box ≧4 hrs. Each sample was washed twice in 100 mM PBS, twice in NEBuffer3 and ≈50 μL of the same buffer containing 100 U/mL of CIAP was applied to each section and incubated for ≧2 hr; samples then underwent a third round of ddTUNEL.
(§1) U87 human glioblastoma cells were grown in DMEM with penicillin/streptomycin and 10% fetal bovine serum (FBS) (Invitrogen). Following 3-weeks' growth, 5 mL of cells were plated into slide chambers (Lab-Tek, Nalge Nunc International, Rochester, N.Y., USA) at 2×10^5 cells per mL, and grown for 24 hrs at 37° C. in a 5% CO2 incubator. […] 24-hrs' later, cells were fixed with 2% PFA, then permeabilized in 0.1% Triton X-100® as described above.

U87 cells [2] = assay: γ-H2A.X histone labelling with FITC-labeled antibody; assay type: cell-based, human; settings: 24 hrs
Description: FITC-labeled Anti-H2A.X histone monoclonal antibody (BioLegend, San Diego, Calif.) was used as an internal control for DNA breaks, at a 1/50 dilution after the samples were blocked with 10% horse serum.
(§2) Human glioblastoma cells (U87) (American Type Culture Collection, Manassas, Va., USA), and grown as recommended in DMEM with penicillin/streptomycin and 10% FBS. Following 3-weeks' growth and splitting, 5 mL of cells were plated into microscope slide chambers (Lab-Tek) at […], and were allowed to grow in the slide chambers for 24 hrs, until they became confluent. […] 24 hrs after treatment, all cells were fixed with 2% PFA for 1 hr, washed 3× in 0.1 M PBS, then incubated in 0.1% Triton X-100® for 6 min and finally washed in 0.1 M PBS buffer. Each slide was assayed for double-strand blunt (red) and overhanging (blue) DNA damage, and counterstained for DNA with YO-PRO-1® (green) or for γH2A.X with an FITC-labeled IgG antibody (green).
After incubation with 10% horse sera and washing, Ser139-phosphorylated H2A.X histone was imaged using an FITC-labeled monoclonal antibody (Biolegend, San Diego, Calif., USA) (1:500) following the methods of the manufacturer. Immune cell marker CD3ε was imaged using an FITC-labeled monoclonal antibody (Santa Cruz Biotechnologies, Santa Cruz, Calif.) (also at 1:500) as recommended by the manufacturer.

U87 cells [3] = assay: ddTUNEL assay (3′OH DNA ends); assay type: cell-based, human; settings: for ddTUNEL: approximate concentration of the probe in the cells: U87 cells following treatment, nominal path length of 6 μm, control 3.7
Description: ddTUNEL reaction buffer was prepared fresh daily by diluting a previously-frozen) stock solution of ddTUNEL buffer 1:5, and solution of cobalt chloride 1:25.
Stock reaction buffer, 5×: 125 mM Tris-HCl, 1 M sodium cacodylate, 1.25 mg/mL BSA, pH 6.6. Stock reaction CoCl2 solution, 25×: 25 mM cobalt chloride.
1. Wash samples twice in ddTUNEL reaction buffer for 10 min each.
2. Incubate sections in ddTUNEL reaction solution for 1-2 h at 37-40° C. in humidified chamber or overnight at room temperature.
5. Incubate with fluorescently labeled avidin or streptavidin ([…]) for 30 min.
as §1

U87 cells [4] = assay: LD50 of stressors on the cells over a 24-hr incubation; assay type: cell-based, human
U87 cells [5] = assay: in situ ligation of blunt-ended and 3′-T-OH overhanging oligonucleotide probes (DNA breaks); assay type: cell-based, human; settings: for number of 3′-T-OH overhang ends / overhanging cuts / number of blunt-ended breaks: 24 hrs after treatment at LD50 concentration; for blebbing of treated cells: microscopy
Description: U87, human glioblastoma, cells were obtained from the American TypeCulture Collection (ATCC) Manassas, Va. and grown as recommended in DMEM with penicillin/streptomycin and 10% FBS. Following 3 weeks of growth and splitting cells were plated into slide chambers (Lab-Tek Nalge Nunc International, Rochester, N.Y., USA) at 2×10^5 cells per mL, and were allowed to grow thereon for 24 hrs until confluence was reached.
Twenty-four hrs after treatment, all cells were fixed with 4% PFA for one hr and washed 3× in 0.1 M PBS, incubated in 0.1% Triton-X100® for 6 min and then washed in 0.1 M PBS buffer. Each slide was assayed for double-strand DNA blunt-ended and overhanging 3′-OH ends, and counterstained for DNA with YO-PRO-1®.
The 3′-OH T specific overhang and blunt-ended DNA probes, shown in FIG. 2A and FIG. 2B, were ligated to the known oligonucleotide standard phantoms the amine apex oligoneuleotides, or alternatively, to fixed permeabilized U87 cells. The sections were pre-incubated in the ligation buffer without the probe (66 mM Tris-HCl, pH 7.5, 5 mM MgCl2, 0.1 mM dithioerythritol, 1 mM ATP, and 15% polyethylene glycol-8000) to ensure even saturation. The buffer was aspirated, and the full ligation mix containing the ligation buffer with probe, 35 μg/μL, and 0.5 U/μL T4 DNA ligase (New England BioLabs; Ipswich, Mass., USA) was applied to the sections, which were then incubated in a humidified box overnight.
The 3′-OH T-specific overhanging- and blunt-ended DNA probes shown in FIG. 11B were ligated to oligonucleotide standard phantoms, mammary gland or to fixed, permeabilized U87 cells. The sections were pre-incubated with ligation buffer in the absence of the probe (66 mM-Tris HCl, pH 7.5, 5 mM MgCl2, 0.1 mM dithioerythritol, 1 mM ATP, and 15% polyethylene glycol-8000) to ensure even saturation. The buffer was aspirated and the full ligation mix [ligation buffer+probe (35 μg/μL) and T4 DNA ligase (0.5 U/μL)] was applied to the sections, which were then incubated in a humidified box overnight. Controls consisted of probe-ligated phantoms, which were then incubated with either EcoRI or BamHI, in the appropriate buffer for 4 hrs, washed, cover-slipped using Fluoromount-G™ (SouthernBiotech), and then sealed with nail varnish.
as §2

[6] = system: normal human astrocytes (NHA); settings: ethylmercury treatment (FIG. 21)
Description: Normal human astrocytes (NHA) were obtained from Lonza (Walkersville, Md., USA) and grown subject to their recommendations. NHA were grown to confluency in Astrocyte Cell Basal Medium supplemented with 3% FBS, Glutamine, Insulin, fhEGF, GA-1000 and ascorbic acid in 16-well Lab-Tek slide chambers (Nalge Nunc, Rochester, N.Y., USA), in a total volume of 240 μL.
NHA were incubated for 1 hour with probes before fixation. Fixation in buffered paraformaldehyde (PFA) was performed in two stages. Firstly, a 50-4 aliquot of ice-cold 8% PFA was added to each well, then gently aspirated and the wells were twice washed with ice-cold 2% PFA and then allowed to completely fix at 4° C. After fixation, cells were washed twice in 1×PBS (Thermo Fisher Scientific, Rockford, Ill., USA). The tanks were then removed from the slides, the well area covered with Fluoromount-G (SouthernBiotech, Ill., USA), cover-slipped and sealed with nail varnish.
3% FCS was present in the NHA medium throughout the time-course. To generate the time-course shown in FIG. 17A and FIG. 17B, NHA were exposed to Mitotracker, H2DCFAM and Hoechst at t=0.

SMILES | Fpg-ddTUNEL: approximate concentration of the probe in the cells (U87 cells [1]) | effect of NaBH4 reduction on the Fpg-ddTUNEL signal / oxo-base levels (U87 cells [1]; U87 cells) | ddTUNEL: approximate concentration of the probe in the cells (U87 cells [3]) | LD50 (U87 cells [4]) | number of 3′-T-OH overhang ends / overhanging cuts (U87 cells [5]) | number of blunt-ended breaks (U87 cells [5]) | blebbing of treated cells (U87 cells [5]; 24 hrs) | also measured
O=NN(CCCl)C(=O)NCCCl [Carmustine, N,N′-bis(2-chloroethyl)-N-nitroso-urea] | 5.2 µM | unaltered by reduction | 22.8 µM | 2.5 µM | ~350 per million base pairs | approximately 900 per million base pairs | formation of small blebs | increase in Fpg-ddTUNEL (U87 cells [1]; U87 cells, vs control): six-fold; difference in cytosolic γ-H2A.X levels, carmustine-treated vs temozolomide-treated cells (U87 cells [2]): 10 fold; transfer of γ-H2A.X into the cytosol (U87 cells [2]): transfer of γ-H2A.X into the cytosol; increase in ddTUNEL (U87 cells [3]; U87 cells, vs control): six-fold; change in blunt-ended breaks (U87 cells [5]; 24 hrs, Example 2): massive increases; increase in levels of overhangs (U87 cells [5]; 24 hrs, Example 2): more than an order of magnitude
OO [H2O2, hydrogen peroxide] | 4.5 µM | redox sensitive | 9.4 µM | 1000 µM |  |  | formation of blebs | 
CCc1c2c(nc3ccc(OC(=O)N4CCC(N5CCCCC5)CC4)cc13)-c1cc3c(c(=O)n1C2)COC(=O)[C@]3(O)CC [Irinotecan, (S)-4,11-diethyl-3,4,12,14-tetrahydro-4-hydroxy-3,14-dioxo1H-pyrano[3′,4′:6,7]-indolizino[1,2-b]quinolin-9-yl-[1,4′bipiperidine]-1′-carboxylate] | 1.7 µM | unaltered by reduction | 7.4 µM |  | 119 per million base pairs | 285 per million base pairs |  | difference in overhang breaks vs control cells (U87 cells [5]; 24 hrs, Example 2): greater than 50 ×; increase in number of blunt-ended breaks (U87 cells [5]; vs control cells (FIG. 7)): more than 50%; increase in number of overhanging breaks (U87 cells [5]; vs control cells (FIG. 7)): ~3 fold
C[n+]1ccc(-c2cc[n+](C)cc2)cc1 [Paraquat] | 6.3 µM |  | 37.2 µM | 300 µM |  |  | no blebbing apparent | share of γ-H2AX found in the cytosol (U87 cells [2]): 65%; blebbing of treated cells (U87 cells [5]; 24 hrs, listed as paraquat): no evidence of blebbing
Cn1nnc2c(C(N)=O)ncn2c1=O [Temozolomide] | 13.7 µM |  | 8.7 µM | 25 µM | ~350 per million base pairs | approximately 900 per million base pairs |  | difference in levels of blunt-end breaks vs control cells (U87 cells [5]; 24 hrs, Example 2): greater than 30 ×
C[CH2][Hg] [ethylmercury] |  |  |  |  |  |  |  | formation of dichlorofluorescein from H2DCF-AM greater than superoxide/carbonyl formation [6]: approximately 20%
